Reference: US20100016274A1, “BETA-LACTAM CANNABINOID RECEPTOR MODULATORS” (priority 2006, published 2010)

Biological target: T1, cannabinoid receptor-1 (CB1), CB1R-containing cell membrane (Homo sapiens, UniProt P21554)
T1 construct: purchased Applied Cell Sciences Inc, Rockville, Md
Assay: biochemical
Format: binding
Settings: IC50, displacement of 3H-CP55940 (1 nM) on CB1 receptors
Procedure: Method A using cell membranes. A compound is dissolved in DMSO and diluted to 1 M as a stock solution. […] A CB1R-containing cell membrane (Applied Cell Sciences Inc, Rockville, Md.) is diluted with binding buffer to a protein concentration of 28 μg/ml.
The mixture is incubated for 90 min at room temperature, then filtered through Whatman glass fiber C disc filter in a vacuum manifold. The filter is washed three times each with 2.5 ml cold wash buffer (binding buffer with only 2.5 mg/ml BSA). The vacuum-dried filter is transferred to a scintillation vial, treated with 3 ml Eco-Scint, and the radioactivity is read on a Beckman LS6500 scintillation counter from which an IC50 value is calculated. The corresponding Ki values are obtained from serial dilutions according to this method, and calculated through the use of a non-linear regression program (Graphpad Inc, San Diego, Calif.).

T1 sequence (P21554 whole entry, species assumed): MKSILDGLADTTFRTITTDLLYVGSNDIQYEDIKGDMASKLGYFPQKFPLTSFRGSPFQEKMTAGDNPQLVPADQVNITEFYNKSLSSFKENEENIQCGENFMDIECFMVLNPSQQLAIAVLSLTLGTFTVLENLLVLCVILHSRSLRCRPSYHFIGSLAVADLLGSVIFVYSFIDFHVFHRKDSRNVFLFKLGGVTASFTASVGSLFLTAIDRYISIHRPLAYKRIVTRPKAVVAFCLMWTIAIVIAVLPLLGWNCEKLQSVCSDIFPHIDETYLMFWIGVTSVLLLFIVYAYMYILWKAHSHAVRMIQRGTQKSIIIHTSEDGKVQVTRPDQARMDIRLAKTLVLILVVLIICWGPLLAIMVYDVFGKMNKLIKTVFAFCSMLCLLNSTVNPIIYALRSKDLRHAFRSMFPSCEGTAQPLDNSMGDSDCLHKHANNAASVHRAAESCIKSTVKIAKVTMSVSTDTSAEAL

| Molecule | IC50 [µM] |
| --- | --- |
| CCCN1CCN(C(=O)CC[C@@H](C(=O)NCc2cccc(C(F)(F)F)c2)N2C(=O)[C@@H](N3C(=O)OC[C@@H]3c3ccccc3)[C@H]2/C=C/c2ccccc2)CC1 [Example 35AJ] | < 10 |
| CC(C)NC(=O)CN1CCN(C(=O)CC[C@@H](C(=O)NCc2cccc(C(F)(F)F)c2)N2C(=O)[C@@H](N3C(=O)OC[C@@H]3c3ccccc3)[C@H]2/C=C/c2ccccc2)CC1 [Example 35AK] | < 10 |
| O=C(CC[C@@H](C(=O)N1CCN(C2CCCCC2)CC1)N1C(=O)[C@@H](N2C(=O)OC[C@@H]2c2ccccc2)[C@H]1/C=C/c1ccccc1)NCC1CCCCC1 [Example 37AA] | < 10 |
| O=C(CC[C@@H](C(=O)N1CCN(C2CCCCC2)CC1)N1C(=O)[C@@H](N2C(=O)OC[C@@H]2c2ccccc2)[C@H]1/C=C/c1ccccc1)NCCOc1ccccc1 [Example 37AB] | < 10 |
| O=C(CC[C@@H](C(=O)N1CCN(C2CCCCC2)CC1)N1C(=O)[C@@H](N2C(=O)OC[C@@H]2c2ccccc2)[C@H]1/C=C/c1ccccc1)NCc1ccc2c(c1)OCO2 [Example 37AC] | < 10 |
| O=C(CC[C@@H](C(=O)N1CCN(C2CCCCC2)CC1)N1C(=O)[C@@H](N2C(=O)OC[C@@H]2c2ccccc2)[C@H]1/C=C/c1ccccc1)N1CCC(Cc2ccccc2)CC1 [Example 37AD] | < 10 |
| O=C(CC[C@@H](C(=O)N1CCN(C2CCCCC2)CC1)N1C(=O)[C@@H](N2C(=O)OC[C@@H]2c2ccccc2)[C@H]1/C=C/c1ccccc1)Nc1cccc(C(F)(F)F)c1 [Example 37AE] | < 10 |
| O=C(CC[C@@H](C(=O)N1CCN(C2CCCCC2)CC1)N1C(=O)[C@@H](N2C(=O)OC[C@@H]2c2ccccc2)[C@H]1/C=C/c1ccccc1)NCc1cccc(OC(F)(F)F)c1 [Example 37L] | < 10 |
| O=C(CC[C@@H](C(=O)N1CCN(C2CCCCC2)CC1)N1C(=O)[C@@H](N2C(=O)OC[C@@H]2c2ccccc2)[C@H]1/C=C/c1ccccc1)NCc1ccc(Cl)c(Cl)c1 [Example 37M] | < 10 |
| O=C(CC[C@@H](C(=O)N1CCN(C2CCCCC2)CC1)N1C(=O)[C@@H](N2C(=O)OC[C@@H]2c2ccccc2)[C@H]1/C=C/c1ccccc1)NCc1cc(Cl)cc(Cl)c1 [Example 37N] | < 10 |
| O=C(CC[C@@H](C(=O)N1CCN(C2CCCCC2)CC1)N1C(=O)[C@@H](N2C(=O)OC[C@@H]2c2ccccc2)[C@H]1/C=C/c1ccccc1)NCc1cc(Cl)ccc1Cl [Example 37O] | < 10 |
| O=C(CC[C@@H](C(=O)N1CCN(C2CCCCC2)CC1)N1C(=O)[C@@H](N2C(=O)OC[C@@H]2c2ccccc2)[C@H]1/C=C/c1ccccc1)NCc1cccc(Cl)c1Cl [Example 37P] | < 10 |
| O=C(CC[C@@H](C(=O)N1CCN(C2CCCCC2)CC1)N1C(=O)[C@@H](N2C(=O)OC[C@@H]2c2ccccc2)[C@H]1/C=C/c1ccccc1)NCc1cc(C(F)(F)F)ccc1F [Example 37Q] | < 10 |
| O=C(CC[C@@H](C(=O)N1CCN(C2CCCCC2)CC1)N1C(=O)[C@@H](N2C(=O)OC[C@@H]2c2ccccc2)[C@H]1/C=C/c1ccccc1)NCc1ccc(F)c(C(F)(F)F)c1 [Example 37R] | < 10 |
| O=C(CC[C@@H](C(=O)N1CCN(C2CCCCC2)CC1)N1C(=O)[C@@H](N2C(=O)OC[C@@H]2c2ccccc2)[C@H]1/C=C/c1ccccc1)NCc1cccc(C(F)(F)F)c1F [Example 37T] | < 10 |
| O=C(CC[C@@H](C(=O)N1CCN(C2CCCCC2)CC1)N1C(=O)[C@@H](N2C(=O)OC[C@@H]2c2ccccc2)[C@H]1/C=C/c1ccccc1)NC1CCc2ccccc21 (stereo partly drawn) [Example 37V] | < 10 |
| O=C(CC[C@@H](C(=O)N1CCN(C2CCCCC2)CC1)N1C(=O)[C@@H](N2C(=O)OC[C@@H]2c2ccccc2)[C@H]1/C=C/c1ccccc1)N1CCC(n2c(O)nc3ccccc32)CC1 [Example 37W] | < 10 |
| O=C(NCCc1ccccc1)[C@H](CCC(=O)N1CCN(C2CCCCC2)CC1)N1C(=O)[C@@H](N2C(=O)OC[C@@H]2c2ccccc2)[C@H]1/C=C/c1ccccc1 [Example 38AC] | < 10 |
| COc1cc(CNC(=O)[C@H](CCC(=O)N2CCN(C3CCCCC3)CC2)N2C(=O)[C@@H](N3C(=O)OC[C@@H]3c3ccccc3)[C@H]2/C=C/c2ccccc2)cc(OC)c1 [Example 38AD] | < 10 |

| Molecule | IC50 [µM] |
| --- | --- |
| COc1cccc([C@@H](C)NC(=O)[C@H](CCC(=O)N2CCN(C3CCCCC3)CC2)N2C(=O)[C@@H](N3C(=O)OC[C@@H]3c3ccccc3)[C@H]2/C=C/c2ccccc2)c1 [Example 38AE] | < 10 |
| COc1cccc(C(C)NC(=O)C(CCC(=O)N2CCN(C3CCCCC3)CC2)N2C(=O)C(N3C(=O)OCC3c3ccccc3)C2C=Cc2ccccc2)c1 (stereo not drawn) [Example 38AF] | < 10 |
| CC(C)(NC(=O)[C@H](CCC(=O)N1CCN(C2CCCCC2)CC1)N1C(=O)[C@@H](N2C(=O)OC[C@@H]2c2ccccc2)[C@H]1/C=C/c1ccccc1)c1ccccc1 [Example 38AG] | < 10 |
| O=C(NCc1ccc(C(F)(F)F)cc1)[C@H](CCC(=O)N1CCN(C2CCCCC2)CC1)N1C(=O)[C@@H](N2C(=O)OC[C@@H]2c2ccccc2)[C@H]1/C=C/c1ccccc1 [Example 38BH] | < 10 |
| O=C(NCc1cccc2ccccc12)[C@H](CCC(=O)N1CCN(C2CCCCC2)CC1)N1C(=O)[C@@H](N2C(=O)OC[C@@H]2c2ccccc2)[C@H]1/C=C/c1ccccc1 [Example 38BL] | < 10 |
| O=C(CC[C@@H](C(=O)N1CCc2ccccc2C1)N1C(=O)[C@@H](N2C(=O)OC[C@@H]2c2ccccc2)[C@H]1/C=C/c1ccccc1)N1CCN(C2CCCCC2)CC1 [Example 38BM] | < 10 |
| O=C(NCc1ccccc1C(F)(F)F)[C@H](CCC(=O)N1CCN(C2CCCCC2)CC1)N1C(=O)[C@@H](N2C(=O)OC[C@@H]2c2ccccc2)[C@H]1/C=C/c1ccccc1 [Example 38K] | ~10 |
| COc1cccc(CNC(=O)[C@H](CCC(=O)N2CCN(C3CCCCC3)CC2)N2C(=O)[C@@H](N3C(=O)OC[C@@H]3c3ccccc3)[C@H]2/C=C/c2ccccc2)c1 [Example 38L] | ~10 |
| O=C(NCc1cccc(F)c1)[C@H](CCC(=O)N1CCN(C2CCCCC2)CC1)N1C(=O)[C@@H](N2C(=O)OC[C@@H]2c2ccccc2)[C@H]1/C=C/c1ccccc1 [Example 38M] | ~10 |
| O=C(NCc1cc(F)cc(F)c1)[C@H](CCC(=O)N1CCN(C2CCCCC2)CC1)N1C(=O)[C@@H](N2C(=O)OC[C@@H]2c2ccccc2)[C@H]1/C=C/c1ccccc1 [Example 38N] | ~10 |
| O=C(NCc1ccc(F)c(Cl)c1)[C@H](CCC(=O)N1CCN(C2CCCCC2)CC1)N1C(=O)[C@@H](N2C(=O)OC[C@@H]2c2ccccc2)[C@H]1/C=C/c1ccccc1 [Example 38O] | < 10 |
| Cc1cccc(CNC(=O)[C@H](CCC(=O)N2CCN(C3CCCCC3)CC2)N2C(=O)[C@@H](N3C(=O)OC[C@@H]3c3ccccc3)[C@H]2/C=C/c2ccccc2)c1 [Example 38V] | < 10 |
| O=C(C[C@@H](C(=O)NCc1cccc(C(F)(F)F)c1)N1C(=O)[C@@H](N2C(=O)OC[C@@H]2c2ccccc2)[C@H]1CCc1ccccc1)NC1CCN(Cc2ccccc2)CC1 [Example 53A, 2(S)-[[(1-Benzylpiperidin-4-yl)amino]carbonylmethyl]-2-[3 (S)-(4(S)-phenyloxazolidin-2-on-3-yl)-4(R)-(2-phenyleth-1-yl)azetidin-2-on-1-yl]acetic acid N-(3-trifluoromethylbenzyl)amide] | < 10 |
| O=C(CN1C(=O)C(c2ccccc2)C1C=Cc1ccccc1)OCc1ccccc1 (stereo not drawn) [Example 70A, Benzyl 2-[3(S*)-2-Phenyl)-4(R*)-(2-styryl)azetidin-2-on-1-yl]acetate] | < 10 |
| O=C(NC1CCCc2ccccc21)[C@H](CCC(=O)N1CCN(C2CCCCC2)CC1)N1C(=O)[C@@H](N2C(=O)OC[C@@H]2c2ccccc2)[C@H]1/C=C/c1cccs1 (stereo partly drawn) [Example 72C] | ~10 |
| O=C(N[C@@H]1CCCc2ccccc21)[C@H](CCC(=O)N1CCN(C2CCCCCC2)CC1)N1C(=O)[C@@H](N2C(=O)OC[C@@H]2c2ccccc2)[C@H]1/C=C/c1ccccc1 [Example 73A] | < 10 |
| O=C(NCc1cccc(C(F)(F)F)c1)[C@H](CCC(=O)N1CCN(C2CCCCC2)CC1)N1C(=O)[C@H](N2C(=O)OC[C@@H]2c2ccccc2)[C@@H]1/C=C/c1ccccc1 [Example 73C] | ~10 |
| O=C(CC[C@@H](C(=O)N1CCN(CCC2CCCCC2)CC1)N1C(=O)[C@@H](N2C(=O)OC[C@@H]2c2ccccc2)[C@H]1/C=C/c1ccccc1)NCc1cc(F)cc(C(F)(F)F)c1 [Example 73E] | < 10 |

Same assay, conditions: displacement of 3H-CP55940 (1 nM) on CB1 receptors; read-out: IC50

| Molecule | IC50 [µM] |
| --- | --- |
| 2(S)-(tert-Butoxycarbonylaminopropyl)-2-[3(S)-(4(S)-phenyloxazolidin-2-on-3-yl)-4(R)-(styr-2-yl)azetidin-2-on-1-yl]acetic acid N-(3-trifluoromethylbenzyl)amide [Example 20Q] | < 10 |
| O=C(NC1CCCc2ccccc21)[C@H](CCC(=O)N1CCN(C2CCCCC2)CC1)N1C(=O)[C@@H](N2C(=O)OC[C@@H]2c2ccccc2)[C@H]1/C=C/c1cccc2ccsc12 (stereo partly drawn) [Example 72A] | ~10 |
| O=C(N[C@@H]1CCCc2ccccc21)[C@H](CCC(=O)N1CCN(C2CCSCC2)CC1)N1C(=O)[C@@H](N2C(=O)OC[C@@H]2c2ccccc2)[C@H]1/C=C/c1ccccc1 [Example 73B] | ~10 |
| O=C(CC[C@@H](C(=O)N1CCN(c2ccccc2)CC1)N1C(=O)[C@@H](N2C(=O)OC[C@@H]2c2ccccc2)[C@H]1/C=C/c1ccccc1)NCc1cc(F)cc(C(F)(F)F)c1 [Example 73D] | ~10 |
| O=C(CC[C@@H](C(=O)N1CCN(c2ccccn2)CC1)N1C(=O)[C@@H](N2C(=O)OC[C@@H]2c2ccccc2)[C@H]1/C=C/c1ccccc1)NCc1cc(F)cc(C(F)(F)F)c1 [Example 73F] | ~10 |
